The test system of assay [1] is K562 cells. The experiment in a line: Cell Titer Glo 2.0 cell viability assay. The class given is cell-based. Particulars: Homo sapiens, 500 cells/well, 72 hours. Summed up:
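K562 cells (500/well) in IMDM with 10% FBS were exposed to serially diluted compounds at 0.1% DMSO final. After 72 h at 37° C, 5% CO2, viability was read by CellTiter-Glo 2.0 luminescence, with medium-only blanks.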
(In general: Cellular ATP, detected with luciferase, serves as a proxy for viable cell number.)

For assay [2], the system named is Target C. The experiment in a line: HiBit protein abundance assay, Target C. It counts as cell-based. The note with it: Homo sapiens; K562 HiBiT-modified cells, 24 hours, luminescence. On the procedure:
Compounds described herein were used to screen for effects on quantitative protein abundance using a HiBit assay system (Promega). Quantitative protein abundance was determined by measuring the protein levels of HiBit-tagged protein targets expressed in cell culture via luminescence using the Nano-Glo HiBiT Lytic Detection System, which uses a split complementation assay format to reconstitute NanoBiT enzyme to generate a luminescent signal. A protein abundance assay was developed such that endogenous protein targets could be modified with the HiBiT peptide tag and their abundance could be assessed after compound treatment. Briefly, K562 cell lines containing a HiBiT-modification were treated with various compounds described herein (e.g., compounds of Formulas (I), (II), or (III)). After treatment for 24 hours, the protein abundance of a specific target was determined by measuring luminescence. • Promega Nano-Glo HiBiT Lytic Detection System (cat #N3030) • Corning 384-well TC-treated microplates (cat #3570) • Synthego Engineered Cells Knock-In Clones Cells were maintained in IMDM with 10% FBS. Before the assay, cells were diluted with phenolphthalein-free growth media (IMDM+1% FBS media) and were seeded in a 384-well plate at a density of 10000 cells/well (for each cell line listed in Table 6). Each compound was prepared as a 10-point 3-fold serial dilution in DMSO with the top dose at a final concentration of 10 μM in the well. Unmodified K562 cells were added at the previously specified density with DMSO to serve as an assay baseline and positive control (PC) and DMSO only with the respective modified cell lines was added to the negative control (NC) columns. Final DMSO concentration was kept at or below 0.25%. Treated cell plates were placed in an incubator at 37° C. with 5% CO2 for 24 hours. After 24 hours, 25 μL of Complete HiBit Lytic reagent was added to each well at room temperature (e.g. one plate requiring 10 mL Lytic Buffer, 100 μL LgBiT Protein, 200 μL Lytic Substrate), shaken for 5 minutes at 600 RPM, then left to sit for 10 minutes for signal to stabilize before reading on a Spark Cyto plate reader (Tecan) with a 500 ms measurement time. To determine compound effects on protein abundance of each target in Table 6, the percent response for each respective cell line was calculated at each compound concentration as follows: For the normalized response at each concentration, a four-parameter logistical regression was fit to the data and the response was interpolated at the 50% value to determine a concentration for protein abundance at 50% (IC50) the untreated control.
In general terms: HiBiT is a short tag that completes a luciferase, so light tracks the accessible tagged protein.

Counter-ions that a name gives are not always drawn.

For orientation: GI50 means the concentration that inhibits growth by half. As a reminder, the IC50 is the midpoint of a concentration-inhibition curve. A higher IC50 goes with weaker potency in that assay.

In the case of `Cc1cn2nc(-c3cc(F)c4nn([C@@H]5CCNC6(CC6)C5)cc4c3)cc(C)c2n1` [Compound 173], the GI50 in assay [1] was 100 to 1000 nM. For the same compound, in assay [2], the IC50 was less than 100 nM.
As to `Cc1cn2nc(-c3cc(F)c4nn(C5CCNCC5)cc4c3)cc2c(C)n1` [Compound 124, 2-[7-fluoro-2-(4-piperidyl)indazol-5-yl]-4,6-dimethyl-pyrazolo[1,5-a]pyrazine], the GI50 in assay [1] lay within 100 to 1000 nM. The same compound yielded an IC50 in assay [2] of less than 100 nM.
The corresponding values for `Cc1nc2ccc(-c3cc(F)c4nn(C5CCNCC5)cc4c3)cc2o1` [Compound 135, 6-[7-fluoro-2-(4-piperidyl)indazol-5-yl]-2-methyl-1,3-benzoxazole] are 100 to 1000 nM and 100 to 1000 nM.
In assay [1], `Cc1c(O)c(-c2ccc3nn(C4CCNCC4)cc3n2)cc2cn(C)nc12` [Compound 109, 2,7-dimethyl-5-[2-(4-piperidyl)pyrazolo[4,3-b]pyridin-5-yl]indazol-6-ol] gave a GI50 of 100 to 1000 nM. This compound showed an IC50 in assay [2] of less than 100 nM.
On the same counts, the results for `Cc1cn2nc(-c3ccc4nn(C5CCNCC5)cc4c3)cc(C)c2n1` [Compound 192, 2,8-dimethyl-6-[2-(4-piperidyl)indazol-5-yl]imidazo[1,2-b]pyridazine] are 100 to 1000 nM and 100 to 1000 nM.
Compound `Cn1cc2cc(-c3ccc4nn(C5CCNCC5)cc4c3)cc(F)c2n1` [Compound 105, 7-fluoro-2-methyl-5-[2-(4-piperidyl)indazol-5-yl]indazole] gave a GI50 in assay [1] of 100 to 1000 nM. Further, the IC50 in assay [2] was in the range of 100 to 1000 nM.
Turning to `CCN1CCC(n2cc3cc(-c4cc(C)c5nc(C)cn5n4)cc(F)c3n2)CC1` [Compound 146, 6-[2-(1-ethyl-4-piperidyl)-7-fluoro-indazol-5-yl]-2,8-dimethyl-imidazo[1,2-b]pyridazine], the GI50 in assay [1] lay within 100 to 1000 nM. This compound also gave an IC50 in assay [2] of less than 100 nM.
The corresponding values for `Cc1nc2c(C)cc(-c3cc(F)c4nn(C5CCNCC5)cc4c3)cc2o1` [Compound 137, 6-[7-fluoro-2-(4-piperidyl)indazol-5-yl]-2,4-dimethyl-1,3-benzoxazole] are 100 to 1000 nM and less than 100 nM.
The corresponding values for `Cc1cn2nc(-c3cc(O)c4nn(C5CCNCC5)cc4c3)cc(C)c2n1` [Compound 156, 5-(2,8-dimethylimidazo[1,2-b]pyridazin-6-yl)-2-(piperidin-4-yl)-2H-indazol-7-ol] are 1000 to 10000 nM and 1000 to 10000 nM.
On the same counts, the results for `CCN1CCC(n2cc3cc(-c4cc(C)c5nc(C)cn5n4)cc(F)c3n2)CC12CC2` (stereo not shown) [Compound 177, 6-[2-(4-ethyl-4-azaspiro[2.5]octan-7-yl)-7-fluoro-indazol-5-yl]-2,8-dimethyl-imidazo[1,2-b]pyridazine] are 100 to 1000 nM and less than 100 nM.
In the case of `Cc1cn2nc(-c3cc(F)c4nn([C@H]5CCNC[C@@H]5F)cc4c3)cc(C)c2n1` [Compound 167, 6-(7-fluoro-2-((3S,4S)-3-fluoropiperidin-4-yl)-2H-indazol-5-yl)-2,8-dimethylimidazo[1,2-b]pyridazine], the GI50 in assay [1] is 1000 to 10000 nM. Besides, in assay [2], the IC50 is 100 to 1000 nM.
The corresponding values for `Cc1cn2cc(-c3cc(F)c4nn(C5CCNCC5)cc4c3)cc(F)c2n1` [Compound 129, 7-fluoro-5-(8-fluoro-2-methylimidazo[1,2-a]pyridin-6-yl)-2-(piperidin-4-yl)-2H-indazole] are 100 to 1000 nM and less than 100 nM.
On the same counts, the results for `CCN1CCC(n2cc3cc(-c4cc(F)c5nn(C)cc5c4)cc(F)c3n2)CC1` [Compound 104, 2-(1-ethyl-4-piperidyl)-7-fluoro-5-(7-fluoro-2-methyl-indazol-5-yl)indazole] are 1000 to 10000 nM and 100 to 1000 nM.
Regarding `Cc1cn2nc(-c3cc(F)c4nn(C5CCN(CCO)CC5)cc4c3)cc(C)c2n1` [Compound 160, 2-[4-[5-(2,8-dimethylimidazo[1,2-b]pyridazin-6-yl)-7-fluoro-indazol-2-yl]-1-piperidyl]ethanol], the GI50 in assay [1] was 100 to 1000 nM. Besides, the IC50 in assay [2] is less than 100 nM.
The corresponding values for `Cc1cn2nc(-c3cc(F)c4nn([C@@H]5CCNC[C@H]5F)cc4c3)cc(C)c2n1` [Compound 168, 6-(7-fluoro-2-((3R,4R)-3-fluoropiperidin-4-yl)-2H-indazol-5-yl)-2,8-dimethylimidazo [1,2-b]pyridazine] are 100 to 1000 nM and 100 to 1000 nM.
For the compound `Cc1cn2nc(-c3cc(F)c4nn(C5CCNCC5)cc4c3)cc(C)c2n1` [Compound 122, 6-(7-fluoro-2-(piperidin-4-yl)-2H-indazol-5-yl)-2,8-dimethylimidazo [1,2-b]pyridazine hydrochloride salt], the GI50 in assay [1] was less than 100 nM. This compound gave a 50% inhibitory concentration (IC50) in assay [2] of less than 100 nM.
`Cn1cc2cc(-c3cc(F)c4nn(C5CCNC6(CC6)C5)cc4c3)cc(F)c2n1` (stereo not shown) [Compound 108, 2-(4-azaspiro[2.5]octan-7-yl)-7-fluoro-5-(7-fluoro-2-methyl-indazol-5-yl)indazole]: the GI50 in assay [1] fell in the range of 100 to 1000 nM. The compound further registered an IC50 in assay [2] of 100 to 1000 nM.
In assay [1], `Cc1cn2nc(-c3cc(F)c4nn([C@H]5CCNC6(CC6)C5)cc4c3)cc(C)c2n1` [Compound 172] showed a GI50 of 100 to 1000 nM. Moreover, in assay [2], the IC50 is less than 100 nM.
The corresponding values for `COc1cc(-c2cc3cn(C)nc3cc2O)nc2cn(C3CCNCC3)nc12` [Compound 140, 5-[7-methoxy-2-(4-piperidyl)pyrazolo[4,3-b]pyridin-5-yl]-2-methyl-indazol-6-ol] are greater than 10000 nM and 1000 to 10000 nM.
On the same counts, the results for `Cc1c(O)c(-c2cc(F)c3nn(C4CCNCC4)cc3c2)cc2cn(C)nc12` [Compound 126, 5-[7-fluoro-2-(4-piperidyl)indazol-5-yl]-2,7-dimethyl-indazol-6-ol] are greater than 10000 nM and 1000 to 10000 nM.
On the same counts, the results for `Cn1cc2cc(-c3ccc4nn(C5CCNCC5)cc4n3)c(O)c(F)c2n1` [Compound 107, 7-fluoro-2-methyl-5-[2-(4-piperidyl)pyrazolo [4,3-b]pyridin-5-yl]indazol-6-ol] are 100 to 1000 nM and 100 to 1000 nM.
Consider `Cc1cn2nc(-c3cc(F)c4nn(C5CCNCC5F)cc4c3)cc(C)c2n1` (stereo not shown) [Compound 166, 6-[7-fluoro-2-(3-fluoro-4-piperidyl)indazol-5-yl]-2,8-dimethyl-imidazo [1,2-b]pyridazine], for which, in assay [1], the GI50 is 1000 to 10000 nM. In assay [2], this compound displayed an IC50 of 100 to 1000 nM.
On the same counts, the results for `Cc1cc(-n2cc3cc(N4CCNCC4)cc(F)c3n2)cc2cn(C)nc12` [Compound 117, 2-(2,7-dimethylindazol-5-yl)-7-fluoro-5-piperazin-1-yl-indazole] are 1000 to 10000 nM and greater than 10000 nM.
